{
  "source": "paper PMC9241057",
  "about": "“Ru(II)arene(N^N bpy/phen)-based RAPTA complexes for in vitro anti-tumour activity in human glioblastoma cancer cell lines and in vivo toxicity studies in a zebrafish model” (RSC Advances, 2022)",
  "key": {"LN229": {"test_system": "LN229", "test": "MTT cytotoxicity assay, LN229", "format": "cell-based, human", "details": "72 h incubation", "protocol": "(§1) The cytotoxic activity of prepared RAPTA complexes (4a–4h) was evaluated by following the standard procedure of the MTT experiment against a series of glioblastoma cells (LN 229, T98, U87MG) in triplicate. In order to accomplish this study, cells were maintained for 72 h with complexes of various concentrations ranging from 2–160 μM, taking cisplatin as a typical positive control.[22]\n(§2) RAPTA complexes were dissolved in 1% DMSO, and 0.9% NaCl aqueous solution was used to dissolve cisplatin. A cell suspension was prepared and the number of cells taken was 2.5 × 10^4 mL^−1. The cells were seeded in 96-well plates (200 μL per well) and allowed 80% confluence prior to treatment. The cells were formerly treated with various concentrations (2.5–160 μM) of complex 4a–h while the control group was treated with PBS […]. After the 72 hours of incubation, 0.5% MTT solution was added to each well (20 μL) and further incubated for 4 hours at […]. The formazan crystals that were formed were dissolved in 150 μL DMSO and then the OD was measured by a microplate reader at 540 nm. The % growth inhibition of the control and treated cells were calculated and represented as the growth inhibition percentage as explained below.% growth inhibition = 100 − [(AD × 100)/AB]where AD is the absorbance measured in wells containing the treated and control samples and AB is the measured absorbance for the wells with media and a vehicle that served as the blank. IC50 was calculated using Graphpad Prism (version 6.0) where % cell viability was plotted against drug concentration."}, "T98": {"test_system": "T98", "test": "MTT cytotoxicity assay, T98", "format": "cell-based, human", "details": "72 h incubation", "protocol": "as §1, §2"}, "U87MG": {"test_system": "U87MG", "test": "MTT cytotoxicity assay, U87MG", "format": "cell-based, human", "details": "72 h incubation", "protocol": "as §1, §2"}, "Conductivity measurement": {"test": "Conductivity measurement", "format": "physicochemical", "details": "3 x 10^-5 M; for Conductivity (ΛM) 10% aq DMSO: in 10% aq DMSO; for Conductivity (ΛM) DMSO: in DMSO", "text": "concentrations gradually.\nOrigin Lab, version 8.5 was\nequation (v) given below: […]\nConductivity measurement 7\ncomplexes with DMSO and aqueous DMSO.\nfollowed the previously described procedure. An orbital shaker was used to shake a known\nDifferent ratios (0.5:1, 1:1,\nsaturated n-octanol to get the partition coefficient. The absorbance of aliquots of the aqueous"}, "Ct-DNA": {"test_system": "Ct-DNA", "test": "Viscosity measurement with Ct-DNA", "format": "binding, calf", "details": "with respect to EtBr", "protocol": "The hydrodynamic study of the viscosity was conducted to screen the binding nature of the designated complexes 4c and 4d with Ct-DNA.\nwith respect to cisplatin.\nUV–Visible, fluorescence spectroscopies and cyclic voltammetry, J. Photochem.\n2. M. Shamsi-Sani, F. Hirini, SM. Abedini, M. Seddighi, Synthesis of benzimidazole\ndipyridoquinoxaline and dipyridophenazine ligands as photosensitizing antennae:\ncurvature in Stern-Volmer plots, J. Am. Chem. Soc., 1983, 105, 1494–1498. (b) B.\nhypoxia active, GSH-resistant cancer cytoselective and mitochondria-targeting\ncancer stem cell therapeutic agents. Dalton Trans., 2022, 51, 5494-5514.\nderivative with bovine serum albumin, J. Pharm. Anal., 2016, 6, 56–63.\n6. K. Jeyalakshmi, J. Haribabu, C. Balachandran, S. Swaminathan, N. S. P."}, "T98G cell line": {"test_system": "T98G cell line", "test": "Time-dependent ROS generation study, DCFH-DA staining", "format": "cell-based, human", "details": "20 μM, 2, 6 and 10 h", "protocol": "The oxidative stress was measured by the level of intracellular ROS via 2′,7′-dichlorodihydrofluorescein diacetate (DCFH-DA) staining.[24] […] Herein, cells were treated with complexes 4c and 4d with a concentration of 20 μM for 2, 6 and 10 h. We observed a higher level of […] fluorescence with the increase in the incubation time because of ROS generation (Fig. 6).\nFig. 7 Graphical representation of the average DCF fluorescence intensity in the T98G cell line upon treatment with cisplatin and complexes 4c and 4d. Incubation time: 2 h, 6 h and 10 h.\nBrain cancer cells were stained with 2′,7′-dichlorofluorescein diacetate (DCFDA) to measure the reactive oxygen species (ROS) and subsequent oxidative stress generated from RAPTA complexes. They were restained by the […] fluorescence intensity generated from oxidized DCFDA. The cancer cells were cultured in a 24-well plate till 70% confluency and treatment was carried out with the aforesaid complex for 24 hours. The ROS generation mediated by the complex was evaluated using DCFDA-2′,7′-dichlorofluorescein diacetate (25 μM) staining for 30 min. The cells were washed with PBS, followed by fresh media replenishment. The images were captured under the EVOS M5000 fluorescent live cell imager (Thermo Fisher Scientific, USA)."}, "VEGF": {"test_system": "VEGF", "test": "VEGF Elisa test", "format": "cell-based, human", "details": "U87MG and T98G, 1 to 20 μM", "text": "The vascular endothelial growth factor (VEGF), formerly known as the vascular permeability factor (VPF) is a signal protein produced by many cells, which stimulates blood vessel formation. In hypoxic conditions when blood circulation is insufficient in the cells, VEGF restores the oxygen supply to tissues.[26] Proper blood supply is required for solid tumour proliferation beyond a limited size; therefore, cancers that can express VEGF are able to grow and metastasize. Two cancer cells, i.e. U87MG and T98G were incubated with increased concentrations (1 to 20 μM) of 4c and 4d and the % of inhibition of VEGF was estimated by an ELISA reader.\nThe capture antibody was diluted to the working concentration in PBS without the carrier protein for coating the 96-well plate. The plate was sealed and incubated overnight at room temperature. It was then aspirated and washed three times with wash buffer and blocked by adding 300 μL of reagent diluent to each well and then incubating at room temperature for a minimum of 1 h. This aspiration was repeated again and then the plate was ready for sample addition.\nThe cells (U87MG and T98G) were treated for 48 h and the supernatants were collected; 100 μL of these samples were added per well and incubated for 2 h at room temperature. […] The optical density of each well was measured immediately by an Elisa reader (λexc = 450 nm)."}},
  "data": [
    {"smiles": "C1N2CN3CN1CP(C2)C3.Cc1ccc(C(C)C)cc1.F[P-](F)(F)(F)(F)F.F[P-](F)(F)(F)(F)F.[Ru+2].c1ccc(-c2ccnc3c2ccc2c(-c4ccccc4)ccnc23)cc1", "note": "[4d, [(η^6-p-Cymene)Ru^II(κ^2-N,N-4,7diphenylphenanthroline)(PTA)]·2PF6]", "values": [
      {"measurement": "IC50", "setting": "LN229", "value": "0.96 ± 0.02", "unit": "µM"},
      {"measurement": "IC50", "setting": "T98", "value": "0.94 ± 0.02", "unit": "µM"},
      {"measurement": "IC50", "setting": "U87MG", "value": "0.93 ± 0.02", "unit": "µM"},
      {"measurement": "Conductivity (ΛM) 10% aq DMSO", "setting": "Conductivity measurement", "value": 77, "unit": "S cm2 mol-1"},
      {"measurement": "Conductivity (ΛM) DMSO", "setting": "Conductivity measurement", "value": 74, "unit": "S cm2 mol-1"},
      {"measurement": "relative viscosity of Ct-DNA on increasing complex concentration", "setting": "Ct-DNA", "value": "steady escalation in the relative viscosity"},
      {"measurement": "average DCF fluorescence intensity (intracellular ROS)", "setting": "T98G cell line", "value": "gradual increase with respect to the incubation time"},
      {"measurement": "VEGF concentration with the increase in complex concentration", "setting": "VEGF", "value": "constant decrease"}
    ]},
    {"smiles": "C1N2CN3CN1CP(C2)C3.Cc1ccc(C(C)C)cc1.Cc1ccnc2c1ccc1c(C)ccnc12.F[P-](F)(F)(F)(F)F.F[P-](F)(F)(F)(F)F.[Ru+2]", "note": "[4c, [(η^6-p-Cymene)Ru^II(κ^2-N,N-4,7dimethylphenanthroline)(PTA)]·2PF6]", "values": [
      {"measurement": "IC50", "setting": "LN229", "value": "0.88 ± 0.02", "unit": "µM"},
      {"measurement": "IC50", "setting": "T98", "value": "0.97 ± 0.02", "unit": "µM"},
      {"measurement": "IC50", "setting": "U87MG", "value": "0.97 ± 0.02", "unit": "µM"},
      {"measurement": "Conductivity (ΛM) 10% aq DMSO", "setting": "Conductivity measurement", "value": 78, "unit": "S cm2 mol-1"},
      {"measurement": "Conductivity (ΛM) DMSO", "setting": "Conductivity measurement", "value": 76, "unit": "S cm2 mol-1"},
      {"measurement": "relative viscosity of Ct-DNA on increasing complex concentration", "setting": "Ct-DNA", "value": "abrupt increase in viscosity up to ri = 2"},
      {"measurement": "average DCF fluorescence intensity (intracellular ROS)", "setting": "T98G cell line", "value": "gradual increase with respect to the incubation time"},
      {"measurement": "VEGF concentration with the increase in complex concentration", "setting": "VEGF", "value": "constant decrease"}
    ]}
  ]
}
